Measurements: ChEMBL document CHEMBL1144796, “Carbonic anhydrase inhibitors. Interaction of indapamide and related diuretics with 12 mammalian isozymes and X-ray crystallographic studies for the indapamide-isozyme II adduct” (Bioorg Med Chem Lett, 2008)

Key:
[1] = target: Carbonic anhydrase 2 (Homo sapiens) (UniProt P00918)
[2] = target: Carbonic anhydrase 13 (Mus musculus) (UniProt Q9D6N1); experiment: Inhibition of mouse full length carbonic anhydrase 13
[3] = target: Carbonic anhydrase 5B, mitochondrial (Homo sapiens) (UniProt Q9Y2D0)
[4] = target: Carbonic anhydrase 6 (Homo sapiens) (UniProt P23280)
[5] = target: Carbonic anhydrase 9 (Homo sapiens) (UniProt Q16790)
[6] = target: Carbonic anhydrase 12 (Homo sapiens) (UniProt O43570)
[7] = target: Carbonic anhydrase 14 (Homo sapiens) (UniProt Q9ULX7)
[8] = target: Carbonic anhydrase 3 (Homo sapiens) (UniProt P07451)
[9] = target: Carbonic anhydrase 4 (Homo sapiens) (UniProt P22748)
[10] = target: Carbonic anhydrase 5A, mitochondrial (Homo sapiens) (UniProt P35218)
[11] = target: Carbonic anhydrase 7 (Homo sapiens) (UniProt P43166)
Chain of Carbonic anhydrase 7 (Homo sapiens) (P43166 whole entry): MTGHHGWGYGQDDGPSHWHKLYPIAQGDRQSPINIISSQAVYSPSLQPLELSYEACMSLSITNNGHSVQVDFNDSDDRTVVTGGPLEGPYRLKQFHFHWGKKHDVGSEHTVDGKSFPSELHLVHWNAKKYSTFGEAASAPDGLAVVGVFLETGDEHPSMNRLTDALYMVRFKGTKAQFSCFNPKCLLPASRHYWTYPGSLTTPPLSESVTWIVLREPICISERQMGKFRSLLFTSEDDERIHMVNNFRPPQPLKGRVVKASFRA

Chain of Carbonic anhydrase 6 (Homo sapiens) (P23280 whole entry): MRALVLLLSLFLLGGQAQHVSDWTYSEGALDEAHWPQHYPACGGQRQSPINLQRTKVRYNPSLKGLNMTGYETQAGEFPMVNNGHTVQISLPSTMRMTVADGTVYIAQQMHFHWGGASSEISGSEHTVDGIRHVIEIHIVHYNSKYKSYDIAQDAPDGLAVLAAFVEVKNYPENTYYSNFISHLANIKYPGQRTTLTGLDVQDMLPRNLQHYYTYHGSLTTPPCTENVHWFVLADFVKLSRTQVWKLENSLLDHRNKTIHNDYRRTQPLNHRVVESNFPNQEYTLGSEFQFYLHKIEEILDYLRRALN
Chain of Carbonic anhydrase 5B, mitochondrial (Homo sapiens) (Q9Y2D0 whole entry): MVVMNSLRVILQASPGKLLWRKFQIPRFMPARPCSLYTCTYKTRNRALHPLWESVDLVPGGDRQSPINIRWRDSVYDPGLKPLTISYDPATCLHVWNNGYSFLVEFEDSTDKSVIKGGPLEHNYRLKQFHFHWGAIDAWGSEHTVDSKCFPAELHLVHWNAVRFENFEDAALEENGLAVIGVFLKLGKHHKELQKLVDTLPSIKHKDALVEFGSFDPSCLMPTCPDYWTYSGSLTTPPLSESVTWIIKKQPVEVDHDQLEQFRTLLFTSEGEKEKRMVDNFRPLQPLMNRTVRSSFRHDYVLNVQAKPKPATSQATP
Chain of Carbonic anhydrase 5A, mitochondrial (Homo sapiens) (P35218 whole entry): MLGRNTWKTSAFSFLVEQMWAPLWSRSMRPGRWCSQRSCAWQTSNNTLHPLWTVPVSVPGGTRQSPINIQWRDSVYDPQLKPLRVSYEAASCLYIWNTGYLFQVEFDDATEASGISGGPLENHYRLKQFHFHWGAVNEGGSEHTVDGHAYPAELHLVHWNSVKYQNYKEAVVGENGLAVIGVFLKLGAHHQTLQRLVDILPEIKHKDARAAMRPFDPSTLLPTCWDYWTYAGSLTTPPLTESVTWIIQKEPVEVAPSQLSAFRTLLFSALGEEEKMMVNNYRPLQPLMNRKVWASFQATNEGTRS
Chain of Carbonic anhydrase 14 (Homo sapiens) (Q9ULX7 whole entry): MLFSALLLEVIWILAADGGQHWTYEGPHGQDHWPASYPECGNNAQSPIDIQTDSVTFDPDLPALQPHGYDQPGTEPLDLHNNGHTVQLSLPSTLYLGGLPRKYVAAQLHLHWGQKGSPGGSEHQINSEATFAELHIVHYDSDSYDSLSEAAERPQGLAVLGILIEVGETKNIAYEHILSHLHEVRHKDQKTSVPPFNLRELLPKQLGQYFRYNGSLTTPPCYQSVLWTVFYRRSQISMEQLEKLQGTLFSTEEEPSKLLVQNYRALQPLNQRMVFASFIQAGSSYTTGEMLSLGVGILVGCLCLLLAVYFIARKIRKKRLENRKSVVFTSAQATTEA
Chain of Carbonic anhydrase 4 (Homo sapiens) (P22748 whole entry): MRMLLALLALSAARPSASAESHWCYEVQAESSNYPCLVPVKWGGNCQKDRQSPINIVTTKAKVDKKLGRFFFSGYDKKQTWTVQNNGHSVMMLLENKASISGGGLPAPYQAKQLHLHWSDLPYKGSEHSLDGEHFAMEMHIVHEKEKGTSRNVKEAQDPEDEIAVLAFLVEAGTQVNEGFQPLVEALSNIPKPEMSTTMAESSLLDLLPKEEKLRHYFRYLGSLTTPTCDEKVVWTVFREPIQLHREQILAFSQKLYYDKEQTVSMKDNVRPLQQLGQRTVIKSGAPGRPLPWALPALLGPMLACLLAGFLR
Chain of Carbonic anhydrase 12 (Homo sapiens) (O43570 whole entry): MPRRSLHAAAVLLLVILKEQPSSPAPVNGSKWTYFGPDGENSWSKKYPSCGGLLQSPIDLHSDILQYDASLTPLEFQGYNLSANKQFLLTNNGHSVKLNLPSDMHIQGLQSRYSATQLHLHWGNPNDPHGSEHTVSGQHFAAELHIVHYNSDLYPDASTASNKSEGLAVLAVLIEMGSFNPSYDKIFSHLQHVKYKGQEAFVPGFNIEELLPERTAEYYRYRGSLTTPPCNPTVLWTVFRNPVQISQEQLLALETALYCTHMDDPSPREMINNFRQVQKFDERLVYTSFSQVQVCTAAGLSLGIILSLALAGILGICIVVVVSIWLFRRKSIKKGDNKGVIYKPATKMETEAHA
Chain of Carbonic anhydrase 13 (Mus musculus) (Q9D6N1 whole entry, looked up): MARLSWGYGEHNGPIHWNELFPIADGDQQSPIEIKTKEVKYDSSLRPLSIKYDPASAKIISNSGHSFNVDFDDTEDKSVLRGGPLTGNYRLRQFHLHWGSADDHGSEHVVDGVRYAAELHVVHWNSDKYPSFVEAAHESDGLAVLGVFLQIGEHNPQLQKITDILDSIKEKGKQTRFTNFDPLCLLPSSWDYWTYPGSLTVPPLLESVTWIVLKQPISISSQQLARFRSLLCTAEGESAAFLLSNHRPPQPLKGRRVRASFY
Chain of Carbonic anhydrase 3 (Homo sapiens) (P07451 whole entry): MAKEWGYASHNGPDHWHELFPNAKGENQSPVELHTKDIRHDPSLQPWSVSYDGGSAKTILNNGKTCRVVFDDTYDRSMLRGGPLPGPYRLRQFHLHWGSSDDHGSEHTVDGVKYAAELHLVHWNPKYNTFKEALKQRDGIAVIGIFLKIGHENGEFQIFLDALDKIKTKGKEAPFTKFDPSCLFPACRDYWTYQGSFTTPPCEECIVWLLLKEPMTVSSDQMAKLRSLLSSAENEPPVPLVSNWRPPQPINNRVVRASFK

Row | Ki [1] [nM] | Ki [2] [nM] | Ki [3] [nM] | Ki [4] [nM] | Ki [5] [nM] | Ki [6] [nM] | Ki [7] [nM] | Ki [8] | Ki [9] [nM] | Ki [10] [nM] | Ki [11] [nM] | SMILES
1 | 1260 | – | – | – | – | – | – | – | – | – | – | CCC1NC(=O)c2cc(S(N)(=O)=O)c(Cl)cc2N1 (stereo not drawn)
2 | 2000 | 15 | 312 | 1710 | 320 | 5.4 | 5430 | > 2 10^5nM | 216 | 750 | – | Cc1ccccc1N1C(=O)c2cc(S(N)(=O)=O)c(Cl)cc2NC1C (stereo not drawn)
3 | – | 3880 | 603 | 3660 | 367 | 355 | 4100 | > 2 10^5nM | 427 | 4220 | – | CC1Nc2cc(Cl)c(S(N)(=O)=O)cc2S(=O)(=O)N1C (stereo not drawn)
4 | 6980 | 2570 | 159 | 3890 | 25.8 | 21.1 | 250 | > 2 10^5nM | 303 | 700 | 62 | CCCCNc1cc(C(=O)O)cc(S(N)(=O)=O)c1Oc1ccccc1
5 | – | – | – | – | – | – | – | > 2 10^5nM | – | – | – | CC(=O)/N=c1/sc(S(N)(=O)=O)nn1C
6 | 435 | 15400 | 429 | 8250 | 412 | 305 | 360 | > 2 10^5nM | 4780 | 10200 | 433 | CC1Nc2cc(C(F)(F)F)c(S(N)(=O)=O)cc2S(=O)(=O)N1C (stereo not drawn)
7 | – | – | – | – | – | – | – | > 2 10^5nM | – | – | – | NS(=O)(=O)c1cc(C(=O)O)c(NCc2ccco2)cc1Cl

Row | SMILES | Ki [1] [nM] | Ki [2] [nM] | Ki [3] [nM] | Ki [4] [nM] | Ki [5] [nM] | Ki [6] [nM] | Ki [7] [nM] | Ki [8] | Ki [9] [nM] | Ki [10] [nM] | Ki [11] [nM]
8 | NS(=O)(=O)c1cc(C2(O)NC(=O)c3ccccc32)ccc1Cl (stereo not drawn) | 138 | 15 | 9 | 1350 | 23 | – | 4130 | – | 196 | 917 | 2.8
